Assay results published in the NIST ThermoML archive (doi:10.1016/j.fluid.2005.11.015).
Numbers after ± are expanded uncertainties.

Conditions: Crystal; visual observation

With CCCCn1cc[n+](C)c1.[Cl-] [1-butyl-3-methylimidazolium chloride] the Normal melting temperature was 67.0 ± 2 °C.
